Test results taken from patent publication US20060094749A1, “Substituted pyridoxines as anti-platelet agents” (Medicure International Inc., priority 2004, published 2006).

Tests used:
Assay type in all cases: cell-based
[1] = tested on: platelets (platelet rich plasma); assay: Inhibition of platelet aggregation, collagen as agonist; conditions: human PRP; for inhibition at 500 µM: compound 500 μM; for inhibition at 100 µM: compound 100 μM; for inhibition at 250 µM: compound 250 μM; for inhibition at 50 µM: compound 50 μM
Procedure: (§1) Platelet rich plasma (PRP) was obtained by drawing whole blood from normal human donors (not on any medication) into sodium citrate tubes (3.2%), and centrifuging at 160 xg for about 10 minutes. Platelet poor plasma (PPP) was obtained by centrifuging the remainder of the sample after the platelets were removed at 800 xg for about 10 minutes. The PRP was adjusted to a count of 280×10^9/L using a mixture of PRP and PPP. The platelets (200 μL) were incubated with the test compounds (25 μL) adjusted to various concentrations (50, 100, 250, and 500 μM) for about 30 minutes at room temperature (approximate final platelet count in the incubation mixture of 250×10^9/L). The samples were incubated for about 3 minutes at about 37° C., and then transferred to the mixing wells of a Chrono-log 4 channel aggregometer (Chrono-log Corp., Havertown, Pa.). After baselines were established, the agonist (25 μL of 40 μM ADP (Sigma, St. Louis, Mo.) or 25 μL of 50 μg/mL and 10 μg/mL collagen (Helena Laboratories, Beaumont, Tex.) or 25 μL of 120 μM thrombin receptor activating peptide (TRAP) (Sigma)) was then added. Aggregation was monitored for 5 minutes at 37° C. with stirring (1000 rpm). The amplitude and slope of each tracing were calculated to determine the amount of aggregation. Control samples were performed using only solvent. The % reduction in aggregation was calculated for each sample compared to the proper solvent control.

[2] = tested on: platelets (platelet rich plasma); assay: Inhibition of platelet aggregation, ADP as agonist; conditions: ADP 4 μM, human PRP, read-out: % Reduction in Aggregation, ADP (4 μM); for inhibition at 500 µM: compound 500 μM; for inhibition at 100 µM: compound 100 μM; for inhibition at 250 µM: compound 250 μM
Procedure: as §1

[3] = tested on: platelets (platelet rich plasma); assay: Inhibition of platelet aggregation, thrombin receptor activating peptide (TRAP) as agonist; conditions: TRAP 12 μM, human PRP, read-out: % Reduction in Aggregation, TRAP (12 μM); for inhibition at 500 µM: compound 500 μM; for inhibition at 100 µM: compound 100 μM; for inhibition at 250 µM: compound 250 μM
Procedure: as §1

[4] = collagen 1 μg/mL, read-out: % Reduction in Aggregation, Collagen (1 μg/mL)
[5] = collagen 5 μg/mL, read-out: % Reduction in Aggregation, Collagen (5 μg/mL)

Row | SMILES | inhibition at 500 µM [1, 4] [%] | inhibition at 500 µM [1, 5] [%] | inhibition at 500 µM [2] [%] | inhibition at 500 µM [3] [%] | inhibition at 250 µM [1, 4] [%] | inhibition at 250 µM [1, 5] [%] | inhibition at 250 µM [2] [%] | inhibition at 250 µM [3] [%] | also measured
1 | Cc1ncc(CCNCc2cccc(C(=N)N)c2)c(CO)c1O [Compound 57, 3-{[2-(5-Hydroxy-4-hydroxymethyl-6-methyl-pyridin-3-yl)ethylamino]methyl}-benzamidine] | 6 | 0 | 0 | 14 |  |  |  |  | 
2 | Cc1ncc(CO)c(CNc2ccc(C(=N)N)cc2)c1O [Compound 39, 4-[(3-Hydroxy-5-hydroxymethyl-2-methyl-pyridin-4-ylmethyl)-amino]-benzamidine] |  |  |  |  |  |  |  |  | inhibition at 100 µM [1, 4]: 1%; inhibition at 100 µM [1, 5]: 8%; inhibition at 100 µM [2]: 3%; inhibition at 100 µM [3]: 5%
3 | Cc1ncc(CNC(=O)c2ccc(-c3ccc(C(=N)N)cc3)cc2)c(C(=O)O)c1O [Compound 26, 5-{[(4′-Carbamimidoyl-biphenyl-4-carbonyl)-amino]-methyl}-3-hydroxy-2-methyl-isonicotinic acid] |  |  |  |  |  |  |  |  | inhibition at 100 µM [1, 4]: 52%; inhibition at 100 µM [1, 5]: 18%; inhibition at 100 µM [2]: 62%; inhibition at 100 µM [3]: 17%
4 | Cc1ncc(CNc2cccc(C(=N)N)c2)c(CO)c1O [Compound 14, 3-[(5-Hydroxy-4-hydroxymethyl-6-methyl-pyridin-3-ylmethyl)-amino]-benzamidine] | 0 | 3 | 16 | 8 |  |  |  |  | 
5 | COc1c(C)ncc(CNC(=O)c2ccc(-c3ccc(C(=N)N)cc3)cc2)c1CO [Compound 23, 4′-Carbamimidoyl-biphenyl-4-carboxylic acid (4-hydroxymethyl-5-methoxy-6-methyl-pyridin-3-ylmethyl)-amide] |  |  |  |  | 19 | 17 | 39 | 27 | 
6 | Cc1ncc(CNc2ccc(-c3ccc(C(=N)N)cc3)cc2C(F)(F)F)c(CO)c1O [Compound 37, 4′-[(5-Hydroxy-4-hydroxymethyl-6-methyl-pyridin-3-ylmethyl)-amino]-3′-trifluoromethyl-biphenyl-4-carboxamidine] |  |  |  |  | 19 | 6 | 43 | 17 | 
7 | Cc1ncc(CNC(=O)c2ccc(C(=N)N)cc2)c(CO)c1O [Compound 5, 4-Carbamimidoyl-N-(5-hydroxyl-4-hydroxymethyl-6-methyl-pyridin-3-ylmethyl)-benzamide] | 91 | 27 | 71 | 84 |  |  |  |  | 
8 | Cc1ncc(CNCc2ccc(C(=N)N)cc2)c(CO)c1O [Compound 7, 4-{[(5-Hydroxyl-4-hydroxymethyl-6-methyl-pyridin-3-ylmethyl)-amino]-methyl}-benzamidine] | 2 | 8 | 26 | 34 |  |  |  |  | 
9 | Cc1ncc(CCNCc2ccc(C(=N)N)cc2)c(CO)c1O [Compound 55, 4-{[2-(5-Hydroxy-4-hydroxymethyl-6-methyl-pyridin-3-yl)-ethylamino]-methyl}-benzamidine] | 24 | 20 | 38 | 75 |  |  |  |  | 
10 | Cc1ncc(CNC(=O)c2ccc(-c3ccc([N+](=O)[O-])nc3)cc2)c(CO)c1O [Compound 18, N-(5-Hydroxy-4-hydroxymethyl-6-methyl-pyridin-3-ylmethyl)-4-(6-nitro-pyridin-3-yl)-benzamide] |  |  |  |  | 6 | 7 | 10 | 30 | 
11 | Cc1ncc(CCNC(=O)c2ccc(C(=N)N)cc2)c(CO)c1O [Compound 59, 4-Carbamimidoyl-N-[2-(5-hydroxy-4-hydroxymethyl-6-methyl-pyridin-3-yl)-ethyl]-benzamide] | 28 | 11 | 55 | 67 |  |  |  |  | 
12 | Cc1ncc(CNc2ccc(-c3ccc(C(=N)N)cc3)cn2)c(CO)c1O [Compound 31, 4-{6-[(5-Hydroxy-4-hydroxymethyl-6-methyl-pyridin-3-ylmethyl)-amino]-pyridin-3-yl}-benzamidine] |  |  |  |  | 74 | 28 | 79 | 64 | 
13 | Cc1ncc(CNCc2cccc(C(=N)N)c2)c(CO)c1O [Compound 9, 3-{[(5-Hydroxy-4-hydroxymethyl-6-methyl-pyridin-3-ylmethyl)-amino]-methyl]-benzamidine] | 0 | 10 | 2 | 0 |  |  |  |  | 
14 | Cc1ncc(CN(Cc2ccc(C(=N)N)cc2)c2ccc(C(=N)N)cc2)c(CO)c1O [Compound 52, 4-(N-(4-Carbamimidoyl-benzyl)-N-((5-hydroxy-4-(hydroxymethyl)-6-methylpyridin-3-yl)methyl)amino)benzamidine] |  |  |  |  |  |  |  |  | inhibition at 50 µM [1, 4]: 93%; inhibition at 50 µM [1, 5]: 7%; inhibition at 50 µM ([2]; compound 50 μM): 95%; inhibition at 50 µM ([3]; compound 50 μM): 95%
15 | COC(=O)c1c(CNC(=O)c2ccc(-c3ccc(C(=N)N)cc3)cc2)cnc(C)c1OC [Compound 28, 5-{[(4′-Carbamimidoyl-biphenyl-4-carbonyl)-amino]-methyl}-3-methoxy-2-methyl-isonicotinic acid methyl ester] |  |  |  |  | 17 | 24 | 46 | 10 | 
16 | Cc1ncc(CCNC(=O)c2cccc(C(=N)N)c2)c(CO)c1O [Compound 61, 3-Carbamimidoyl-N-[2-(5-hydroxy-4-hydroxymethyl-6-methyl-pyridin-3-yl)-ethyl]-benzamide] | 0 | 10 | 2 | 0 |  |  |  |  | 
17 | Cc1ncc(CNc2ccc(-c3ccc(C(=N)N)cc3)cc2OC(F)(F)F)c(CO)c1O [Compound 35] |  |  |  |  | 86 | 12 | 84 | 35 | 
18 | Cc1ncc(CNc2ccc(-c3ccc(C(=N)N)cc3)cc2)c(C)c1O [Compound 43, 4′-[(5-Hydroxy-4,6-dimethyl-pyridin-3-ylmethyl)-amino]-biphenyl-4-carboxamidine] |  |  |  |  | 100 | 0 | 87 | 69 | 
19 | Cc1ncc(CNC(=O)c2cccc(C(=N)N)c2)c(CO)c1O [Compound 2, 3-Carbamimidoyl-N-(5-hydroxy-4-hydroxymethyl-6-methyl-pyridin-3-ylmethyl)-benzamide] | 3 | 12 | 10 | 6 |  |  |  |  | 
20 | Cc1ncc(CNC(=O)c2ccc(-c3ccc(C(=N)N)cc3)cc2)c(CO)c1O [Compound 20, 4′-Carbamimidoyl-biphenyl-4-carboxylic (5-hydroxyl-4-hydroxymethyl-6-methyl-pyridin-3-ylmethyl)-amide] |  |  |  |  | 94 | 64 | 93 | 95 | 
